# Reference: patent US5698547A, “Cephalosporin antibiotics” (Microcide Pharmaceuticals, Inc., priority 1995, dated 1997)
# Structures can show the parent of a compound that is named as a salt.
# Key:
# [1] = system: S. aureus Col (Meth^R) (lac^-); experiment: MIC by agar dilution, S. aureus Col (Meth^R) (lac^-); type: cell-based; settings: Staphylococcus aureus; agar dilution; S. aureus Col (Meth^R) (lac^-); read-out: MIC
# Procedure, shortened: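 Agar dilution per NCCLS (1991): two-fold dilutions from 128 μg/mL down to ≤0.25 μg/mL in Mueller-Hinton agar, each level in duplicate. Spots of about 10^4 cfu of log-phase culture; 16-20 h at 35°-36° C. MIC in μg/ml is the lowest concentration inhibiting growth.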
# [2] = system: methicillin-susceptible S. aureus strain ATCC 13709; experiment: murine model for lethal bacteremic peritonitis; type: in vivo, female Swiss-Webster mice; settings: subcutaneous, 72 h
# Method: Groups of 5 female Swiss-Webster mice (Simonsen, Gilroy, Calif.) each are challenged by the intraperitoneal (IP) route with tenfold increments of a bacterial inoculum. This permits calculation of the mean lethal dose (LD50) and the LD100. For preliminary evaluation of a new antibiotic, mice are challenged IP with an LD100 titer of bacteria. In two equal doses administered at the time of bacterial challenge and 2 hours later, groups of 10 mice each are treated subcutaneously with two-fold increments of the test drug and an antibiotic of known efficacy in mice and humans (i.e., positive control). Mice are observed for 72 h. Those alive at 72 h are considered long term survivors. The total drug dose in mg/kg that protects 50% of mice in a group from death is termed the mean protective dose (PD50). PD50 s are similarly determined for several pathogens. The quantitative endpoints for the new drug are then compared with those obtained with reference antibiotics.
# Six ten-fold dilutions of inoculum suspended in 0.5 mL of sterilized 7% hog gastric mucin (Sigma) are injected IP in groups of 5 mice each. A control group of 5 mice receive mucin alone. Mice are observed for 72 h. Those alive at 72 h are considered long term survivors. The mean lethal dose (LD50) and 100% lethal dose (LD100) are determined by the probit test.
# For antibiotic efficacy studies, mice are challenged IP with bacterial titers that will afford an LD100 for the test strain. In two equal doses administered at the time of bacterial challenge and 2 hours later, groups of 10 mice each are treated by the subcutaneous route (SC) with twofold increments of the test antibiotic; another group is treated similarly with a reference antibiotic of known efficacy in animals and man. Drug doses can range from 0.01 to 512 mg/kg. If the drug is poorly soluble, Tween 20 or propylene glycol will be employed to solubilize the drug. Animals are observed for 72 h. The 50% protective dose (PD50) is calculated in mg/kg by the probit method. The PD50 is the same as the 50% effective dose (ED50) and the 50% curative dose (CD50). Samples of blood from the hearts of all animals that die and from half the mice that survive are cultured on brain-heart infusion agar. Animals that received a protective dosage of the test drug will be alive at 72 h, although they may appear moderately ill to very ill during the observation period. […] Most of these mice will die within 6 to 48 h. Those alive at 72 h will be considered long term survivors.
# (Compound numbers correspond to those in MIC tables; data
# reported for challenge with methicillin-susceptible S. aureus
SMILES,MIC [1] [µg/mL],Mortality ([2]; dose 0.3125 mg/kg),Mortality ([2]; dose 0.625 mg/kg),Mortality ([2]; dose 1.25 mg/kg),Mortality ([2]; dose 2.5 mg/kg),Mortality ([2]; dose 5 mg/kg),Mortality ([2]; dose 10 mg/kg),Mortality ([2]; dose 20 mg/kg),Mortality ([2]; dose 40 mg/kg),Mortality ([2]; dose 2 mg/kg),Mortality ([2]; dose 4 mg/kg),Mortality ([2]; dose 8 mg/kg),Mortality ([2]; dose 16 mg/kg)
"N=C(N)SCc1ccc(CC(=O)N[C@@H]2C(=O)N3C(C(=O)O)=C(Sc4ccccc4CSC(=N)N)CS[C@H]23)cc1 [Cmpd 97, (7R)-7-[((4-isothiouroniummethylphenyl)acetyl)amino]-3-(2-isothiouroniummethylphenylthio)-3-cephem-4-carboxylate, trifluoroacetic acid salt]",2,8/10,5/10,3/10,2/10,0/10,–,–,–,–,–,–,–
"N#CCSCC(=O)N[C@@H]1C(=O)N2C(C(=O)O)=C(Sc3ccnn3-c3ccccc3)CS[C@H]12 [Cmpd 122, (7R)-7-[(cyanomethylthioacetyl)amino]-3-(1-N-phenylpyrazol-5-ylthio)-3-cephem-4-carboxylic acid]",4,–,8/10,6/10,0/10,0/10,0/10,–,–,–,–,–,–
"N#Cc1ccccc1SC1=C(C(=O)O)N2C(=O)[C@@H](NC(=O)Cc3ccccc3)[C@H]2SC1 [Cmpd 41, (7R)-7-[(Phenylacetyl)amino]-3-(2-cyanophenylthio)-3-cephem-4-carboxylic acid]",1,–,8/10,6/10,0/10,0/10,0/10,–,–,–,–,–,–
"CO/N=C(\C(=O)N[C@@H]1C(=O)N2C(C(=O)O)=C(COC(C)=O)CS[C@H]12)c1csc(N)n1 [Cefotaxime, (7R)-3-Acetoxymethyl-7-[(Z)-2-(aminothiazol-4-yl)-2-(methoxyimino)acetamido]-3-cephem-4-carboxylic acid, reference compound]",> 32,–,–,–,8/10,5/10,3/10,4/10,1/10,–,–,–,–
"CSCC(=O)N[C@@H]1C(=O)N2C(C(=O)O)=C(Sc3ccccc3CSC(=N)N)CS[C@H]12 [Cmpd 127, (7R)-7-[(methylthioacetyl)amino]-3-(2-isothiouroniummethylphenylthio)-3-cephem-4-carboxylate, inner salt]",4,6/10,5/10,4/10,2/10,1/10,–,–,–,–,–,–,–
"Nc1nc(/C(=N/OC2CCCC2)C(=O)N[C@@H]2C(=O)N3C(C(=O)O)=C(Sc4ccnn4-c4ccccc4)CS[C@H]23)cs1 [Cmpd 89, (7R)-7-[(Z)-2-(aminothiazol-4-yl)-2-(cyclopentyloxyimino)acetamido]-3-(1-N-phenylpyrazol-5-ylthio)-3-cephem-4-carboxylic acid]",2,–,9/10,9/10,9/10,8/10,8/10,–,–,–,–,–,–
"O=C(O)C1=C(Sc2ccnn2-c2ccccc2)CS[C@@H]2[C@H](NC(=O)C3SCCS3)C(=O)N12 [Cmpd 115, (7R)-7-[(2-dithiolanylcarbonyl)amino]-3-(1-N-phenylpyrazol-5-ylthio)-3-cephem-4-carboxylic acid]",4,–,8/10,9/10,7/10,4/10,0/10,–,–,–,–,–,–
"O=C(CSc1ccncc1)N[C@@H]1C(=O)N2C(C(=O)O)=C(Sc3ccnn3-c3ccccc3)CS[C@H]12 [Cmpd 110, (7R)-7-[(4-pyridylthioacetyl)amino]-3-(1-N-phenylpyrazol-5-ylthio)-3-cephem-4-carboxylic acid]",2,–,8/10,7/10,8/10,6/10,0/10,–,–,–,–,–,–
"O=C(Cc1ccccc1)N[C@@H]1C(=O)N2C(C(=O)O)=C(Sc3cccnc3-n3cccn3)CS[C@H]12 [Cmpd 103, (7R)-7-[(Phenylacetyl)amino]-3-(2-(pyrazol-1-yl)pyridin-3-ylthio)-3-cephem-4-carboxylic acid]",2,–,7/10,7/10,7/10,5/10,0/10,–,–,–,–,–,–
"O=C(CSc1ccccc1)N[C@@H]1C(=O)N2C(C(=O)O)=C(Sc3ccnn3-c3ccccc3)CS[C@H]12 [Cmpd 119, (7R)-7-[(phenylthioacetyl)amino]-3-(1-N-phenylpyrazol-5-ylthio)-3-cephem-4-carboxylic acid]",2,10/10,9/10,10/10,7/10,8/10,–,–,–,–,–,–,–
Cc1nnc(SCC(=O)N[C@@H]2C(=O)N3C(C(=O)O)=C(Sc4ccnn4-c4ccccc4)CS[C@H]23)s1 [Cmpd 118],4,–,8/10,6/10,8/10,4/10,2/10,–,–,–,–,–,–
"N#Cc1ncccc1SC1=C(C(=O)O)N2C(=O)[C@@H](NC(=O)Cc3ccccc3)[C@H]2SC1 [Cmpd 102, (7R)-7-[(Phenylacetyl)amino]-3-(2-cyanopyridin-3-ylthio)-3-cephem-4-carboxylic acid]",4,10/10,8/10,7/10,5/10,0/10,–,–,–,–,–,–,–
"N#CCC(=O)N[C@@H]1C(=O)N2C(C(=O)O)=C(Sc3ccccc3I)CS[C@H]12 [Cmpd 17, (7R)-7-[(Cyanoacetyl)amino]-3-(o-iodophenylthio)-3-cephem-4-carboxylic acid]",2,–,–,–,–,–,–,–,–,8/10,5/10,0/10,0/10
"N=C(N)SCc1ccccc1SC1=C(C(=O)O)N2C(=O)[C@@H](NC(=O)Cc3ccccc3CN)[C@H]2SC1 [Cmpd 101, (7R)-7-[((2-Aminomethylphenyl)acetyl)amino]-3-(2-isothiouroniummethylphenylthio)-3-cephem-4-carboxylate, trifluoroacetic acid salt]",4,–,5/10,2/10,0/10,0/10,0/10,–,–,–,–,–,–
"CC(C)N=C(NC(C)C)SCC(=O)N[C@@H]1C(=O)N2C(C(=O)O)=C(Sc3ccccc3CSC(=N)N)CS[C@H]12 [Cmpd 125, (7R)-7-[((N,N'-diisopropylisothiouronium)acetyl)amino]-3-(2-isothiouroniummethylphenylthio)-3-cephem-4-carboxylate, trifluoroacetic acid salt]",4,–,9/10,10/10,7/10,4/9,7/10,–,–,–,–,–,–
"O=C(O)C1=C(Sc2ccnn2-c2ccccc2)CS[C@@H]2[C@H](NC(=O)/C(=N\O)c3ccccc3)C(=O)N12 [Cmpd 130, (7R)-7-[(Z)-2-(Phenyl)-2-(hydroxyimino)acetamido]-3-(1-N-(phenyl)pyrazol-5-ylthio)-3-cephem-4-carboxylic acid]",2,–,10/10,7/10,9/10,6/10,6/10,–,–,–,–,–,–
"Nc1nc(-c2ccccc2)c(SC2=C(C(=O)O)N3C(=O)[C@@H](NC(=O)Cc4ccccc4)[C@H]3SC2)s1 [Cmpd 92, (7R)-7-[(Phenylacetyl)amino]-3-(2-amino-4-phenylthiazol-5-ylthio)-3-cephem-4-carboxylic acid]",2,–,–,–,–,–,–,–,–,–,–,–,–
"O=C(Cc1ccccc1)N[C@@H]1C(=O)N2C(C(=O)O)=C(Sc3cnnn3-c3ccccc3)CS[C@H]12 [Cmpd 91, (7R)-7-[(Phenylacetyl)amino]-3-(1-N-phenyl-1,2,3-triazol-5-ylthio)-3-cephem-4-carboxylic acid]",4,–,–,–,–,–,–,–,–,–,–,–,–
"CCCCCC(=O)N[C@@H]1C(=O)N2C(C(=O)O)=C(Sc3ccnn3-c3ccccc3)CS[C@H]12 [Cmpd 109, (7R)-7-[(hexanoyl)amino]-3-(1-N-phenylpyrazol-5-ylthio)-3-cephem-4-carboxylic acid]",4,–,–,–,–,–,–,–,–,–,–,–,–
